# Measurements reported in patent US8569447B2, “Cell-permeable peptide inhibitors of the JNK signal transduction pathway” (Xigen SA, priority 2003, dated 2013).
# Non-standard residues stand in square brackets, D forms with d. Residues, ends and D or L forms follow the SMILES beside them.
# Experiments:
# [1] = Rotarod test of motor coordination; format: in vivo, mice; conditions: for motor coordination (rotarod), overall: doses of Table 2: D-JNKI i.p. and icv, MK-801 1 mg/Kg i.p.
# Protocol: Typically, the high toxicity of other neuroprotective compounds has severely limited their clinical use. (See Gladstone et al., Stroke, 33:2123-36 (2002), incorporated by reference in its entirety). The ability of mice to maintain themselves on horizontal turning rotarod was used as criterion for possible side effects of different doses of D-JNKI and of a therapeutic dose of MK-801 (1 mg/Kg, a standard therapeutic dose). […] (11 and 110 mg/Kg) and icv injections of D-JNKI (2 μl containing 15.7 ng or 157 ng of D-JNKI). The i.p. injection of MK-801 (1 mg/Kg) was used as a control compound during this assessment procedure.
# The mice were trained the day before and in the morning of the experimental day, in order to reduce the variability between subjects. Both training and test sessions were identical for control and injected mice. […] The mice were placed on the rotarod, which was programmed to accelerate uniformly from 4 to 40 rpm. The latency to falls for each mouse tested was recorded. The results of this assessment using the rotarod method are presented in Table 2 as median latency to fall (measured in seconds).
# [2] = Systolic and diastolic blood pressure after D-JNKI injection; format: in vivo, mice; conditions: 10 minutes before until 30 minutes after injection
# Text: Using male ICR-CD1 mice (approximately 6 weeks old and weighing in the range of about 18 to 37 g) (Harlan, Inc.), ischemia was provoked by introducing a filament from the common carotid artery into the internal carotid artery and advancing the filament into the arterial circle, thereby occluding the middle cerebral artery. See, e.g., Huang et al., Science, 265:1883-85 (1994); Hara et al., Proc. Natl. Acad. Sci. (USA) 94:2007-12 (1997); each of which is hereby incorporated by reference in its entirety. Regional cerebral blood flow was measured by laser-Doppler flowmetry with a probe fixed on the skull throughout the ischemia and until 10 minutes after reperfusion. Rectal temperature was measured and maintained at 37° C. The animals were sacrificed 48 hours after reperfusion. Serial cryostat sections […] were traced using a computer-microscope system equipped with the Neurolucida program (Microbrightfield, Inc.), and the volumes of the ischemic area and of the whole brain were calculated (blind) with the Neuroexplorer program. Systolic and diastolic blood pressure were measured with an arterial catheter in three additional mice from 10 minutes before the D-JNKI injection until 30 minutes afterwards. […] The Guidelines of the Swiss Federal Veterinary Office were followed in all experiments.
# [3] = target: recombinant JNK1α1 (Homo sapiens, UniProt P45983); assay: In vitro kinase assay with recombinant JNK1α1; format: biochemical
# Protocol: (§1) Cellular extracts were prepared by scraping cells in lysis buffer (20 mM Tris-acetate, 1 mM EGTA, 1% Triton X-100, 10 mM p-nitrophenyl-phosphate, 5 mM sodium pyrophosphate, 10 mM β-glycerophosphate, 1 mM dithiothreitol). 25 μg samples were incubated for 1 hour at room temperature with 1 μg GST-c-Jun (amino acid residues 1-89) and 10 μL glutathione-agarose beads (Sigma). The beads were washed four times and then resuspended in the lysis buffer described above. In vitro kinase assays were then performed using recombinant JNK1α1 and 0.5 μg of a substrate selected from the group consisting of GST-fusion proteins (e.g., GST-Jun and GST-Elk1 fusion proteins), casein and histone (Sigma). Reactions were initiated with 10 mM MgCl2 and 10 μM ATP in the presence of 5 μCi ^33P-ATP, and were incubated for 30 minutes at 30° C. The reaction products were separated by SDS-PAGE, and the gels were dried and then exposed to X-ray films (Kodak).
# The terms “P-Jun” and “P-Elk1,” as used herein, refer to the radiolabeled (i.e., phosphorylated with ^33P-ATP) forms of GST-Jun and GST-Elk1 substrates, respectively.
# [4] = system: pKC; assay: Kinase specificity assay; format: biochemical; conditions: 500 μM, substrate histone
# Protocol: as §1
# In vitro experiments were performed to determine the specificity of the JNKI peptides in blocking JNK activation. In particular, the effect of these peptides on the activity of 40 different kinases (10 μM peptides, 10 μM ATP) towards their respective substrates was tested. The complete list of substrates used in these experiments can be found on the world wide web at www.upstate.com/img/pdf/KinaseProfiler.pdf. […]
# [5] = target: p38 (Homo sapiens, UniProt Q16539); assay: Kinase specificity assay; format: biochemical; conditions: 500 μM, substrate ATF2
# Protocol: as §1
# (§2) In vitro experiments were performed to determine the specificity of the JNKI peptides in blocking JNK activation. […] The complete list of substrates used in these experiments can be found on the world wide web at www.upstate.com/img/pdf/KinaseProfiler.pdf. […] The substrates for these kinases are ERK2:ERK1; p38:ATF2; p34, pKC, pKA:histone; and caK:caseine. […] For a discussion of other small chemical inhibitors of the Jun N-terminal kinase (JNK), See Bennett et al., Proc. Natl. Acad. Sci. (USA), 98:13681-86 (2001), hereby incorporated by reference in its entirety.
# [6] = system: caK; assay: Kinase specificity assay; format: biochemical; conditions: 500 μM, substrate caseine
# Protocol: as §1, §2
# [7] = target: ERK2 (Homo sapiens, UniProt P28482); assay: Kinase specificity assay; format: biochemical; conditions: 500 μM
# Protocol: as §1, §2
# [8] = target: p34 (Homo sapiens, UniProt P06493); assay: Kinase specificity assay; format: biochemical; conditions: 500 μM, substrate histone
# Protocol: as §1, §2
# [9] = system: JNK; conditions: JBDs of IB1 and IB2; cited from earlier work
# [10] = system: βTC-3 cell cultures; assay: Cellular import of fluorescein-labeled peptides; format: cell-based; conditions: 1 μM, βTC-3 cells
# Protocol: The ability of the L- and D-enantiomeric forms of TAT, TAT-IB1 and TAT-IB2 peptides (“TAT-IB peptides”) to enter cells were evaluated.
# Labeled peptides (1 μM) were added to βTC-3 cell cultures, which were maintained as described in Example 3. At predetermined times, cells were washed with PBS and fixed for five minutes in ice-cold methanol-acetone (1:1) before being examined under a fluorescence microscope. Fluorescein-labeled BSA (1 μM, 12 moles/mole BSA) was used as a control.
# Sequence of recombinant JNK1α1 (P45983 1-384 isoform P45983-2, species assumed): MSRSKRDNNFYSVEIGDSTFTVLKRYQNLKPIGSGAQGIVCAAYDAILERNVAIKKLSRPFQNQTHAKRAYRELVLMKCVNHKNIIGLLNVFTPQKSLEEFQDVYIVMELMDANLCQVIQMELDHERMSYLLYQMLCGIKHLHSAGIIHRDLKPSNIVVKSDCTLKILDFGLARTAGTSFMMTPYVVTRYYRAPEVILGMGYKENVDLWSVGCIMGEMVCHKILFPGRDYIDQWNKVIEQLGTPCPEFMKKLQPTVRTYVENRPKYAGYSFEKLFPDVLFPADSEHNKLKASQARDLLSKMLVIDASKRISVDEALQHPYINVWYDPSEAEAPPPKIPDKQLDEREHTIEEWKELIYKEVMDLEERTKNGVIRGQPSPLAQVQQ
# Sequence of p34 (P06493 whole entry): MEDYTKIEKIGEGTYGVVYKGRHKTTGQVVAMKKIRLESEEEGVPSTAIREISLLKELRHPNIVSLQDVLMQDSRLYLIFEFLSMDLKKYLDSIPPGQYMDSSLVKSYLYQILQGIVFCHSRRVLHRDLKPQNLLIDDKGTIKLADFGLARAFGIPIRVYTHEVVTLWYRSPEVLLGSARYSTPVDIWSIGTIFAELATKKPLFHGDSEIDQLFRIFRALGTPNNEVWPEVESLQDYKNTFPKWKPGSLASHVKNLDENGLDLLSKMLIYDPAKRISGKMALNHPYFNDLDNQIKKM
# Sequence of p38 (Q16539 whole entry): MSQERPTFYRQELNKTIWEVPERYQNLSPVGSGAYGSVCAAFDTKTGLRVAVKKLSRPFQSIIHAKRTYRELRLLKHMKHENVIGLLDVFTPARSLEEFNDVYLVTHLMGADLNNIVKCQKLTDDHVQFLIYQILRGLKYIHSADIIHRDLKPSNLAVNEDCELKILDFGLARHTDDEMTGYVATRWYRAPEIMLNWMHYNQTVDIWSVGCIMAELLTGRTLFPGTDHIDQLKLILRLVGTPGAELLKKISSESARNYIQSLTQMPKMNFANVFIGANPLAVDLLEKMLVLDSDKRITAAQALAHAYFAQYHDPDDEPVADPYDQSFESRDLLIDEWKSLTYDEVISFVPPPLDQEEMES
# Sequence of ERK2 (P28482 whole entry, species assumed): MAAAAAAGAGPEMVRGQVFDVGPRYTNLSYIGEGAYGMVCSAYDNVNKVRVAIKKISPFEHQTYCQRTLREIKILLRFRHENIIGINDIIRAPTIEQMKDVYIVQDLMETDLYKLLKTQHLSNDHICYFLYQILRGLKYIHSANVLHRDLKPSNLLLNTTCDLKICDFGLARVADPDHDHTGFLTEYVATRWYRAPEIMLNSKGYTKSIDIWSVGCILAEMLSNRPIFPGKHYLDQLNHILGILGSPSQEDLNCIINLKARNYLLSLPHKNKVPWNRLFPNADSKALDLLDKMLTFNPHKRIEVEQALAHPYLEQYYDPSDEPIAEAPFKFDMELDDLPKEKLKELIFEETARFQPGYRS
molecule,measurement,setting,value
"CC(C)C[C@@H](NC(=O)[C@@H](Cc1ccccc1)NC(=O)[C@H]1CCCN1C(=O)[C@@H](CCC(N)=O)NC(=O)[C@H](NC(=O)[C@H]1CCCN1C(=O)[C@@H](CCCNC(=N)N)NC(=O)[C@@H](CO)NC(=O)[C@@H](CCC(N)=O)NC(=O)[C@@H](CC(=O)O)NC(=O)[C@H](N)[C@H](C)O)C(C)C)C(=O)N[C@H](CC(N)=O)C(=O)N[C@H](CC(C)C)C(=O)N[C@@H](C(=O)N[C@@H](C(=O)N1CCC[C@@H]1C(=O)N[C@H](CCCNC(=N)N)C(=O)N[C@H](CCCCN)C(=O)N1CCC[C@@H]1C(=O)N[C@H](CCCNC(=N)N)C(=O)N1CCC[C@@H]1C(=O)N1CCC[C@@H]1C(=O)N[C@H](CCCNC(=N)N)C(=O)N[C@H](CCCNC(=N)N)C(=O)N[C@H](CCCNC(=N)N)C(=O)N[C@H](CCC(N)=O)C(=O)N[C@H](CCCNC(=N)N)C(=O)N[C@H](CCCNC(=N)N)C(=O)N[C@H](CCCCN)C(=O)N[C@H](CCCCN)C(=O)N[C@H](CCCNC(=N)N)C(=O)NCC(=O)O)[C@H](C)O)[C@H](C)O [D-JNKI, TDQSRPVQPF LNLTTPRKPR PPRRRQR RKKRG] (H-[dT][dD][dQ][dS][dR][dP][dV][dQ][dP][dF][dL][dN][dL][dT][dT][dP][dR][dK][dP][dR][dP][dP][dR][dR][dR][dQ][dR][dR][dK][dK][dR]G-OH)",Median Latency to Fall,"[1]; 15.7 ng icv, 1 day",302 s
same,Median Latency to Fall,"[1]; 15.7 ng icv, 6 days",345 s
same,Median Latency to Fall,"[1]; 15.7 ng icv, 12 days",285 s
same,Median Latency to Fall,"[1]; 15.7 ng icv, +3 hours",342 s
same,Median Latency to Fall,"[1]; 15.7 ng icv, −1 hour",210 s
same,Median Latency to Fall,"[1]; 157 ng icv, 1 day",253 s
same,Median Latency to Fall,"[1]; 157 ng icv, 6 days",338 s
same,Median Latency to Fall,"[1]; 157 ng icv, 12 days",335 s
same,Median Latency to Fall,"[1]; 157 ng icv, +3 hours",200 s
same,Median Latency to Fall,"[1]; 157 ng icv, −1 hour",260 s
same,Median Latency to Fall,"[1]; 11 mg/Kg i.p., 1 day",372 s
same,Median Latency to Fall,"[1]; 11 mg/Kg i.p., 6 days",287 s
same,Median Latency to Fall,"[1]; 11 mg/Kg i.p., 12 days",418 s
same,Median Latency to Fall,"[1]; 11 mg/Kg i.p., +3 hours",221 s
same,Median Latency to Fall,"[1]; 11 mg/Kg i.p., −1 hour",204 s
same,Median Latency to Fall,"[1]; 110 mg/Kg i.p., 1 day",447 s
same,Median Latency to Fall,"[1]; 110 mg/Kg i.p., 6 days",416 s
same,Median Latency to Fall,"[1]; 110 mg/Kg i.p., 12 days",325 s
same,Median Latency to Fall,"[1]; 110 mg/Kg i.p., +3 hours",266 s
same,Median Latency to Fall,"[1]; 110 mg/Kg i.p., −1 hour",276 s
same,motor impairment,[1]; at 6 and 15 days following treatment,no sign of motor impairment
same,"motor coordination (rotarod), overall",[1],unimpaired
same,change of blood pressure,[2],less than 10%
"C[C@]12N[C@H](Cc3ccccc31)c1ccccc12 [MK-801, reference compound]",Median Latency to Fall,"[1]; 1 mg/Kg i.p., 1 day",174 s
same,Median Latency to Fall,"[1]; 1 mg/Kg i.p., 6 days",233 s
same,Median Latency to Fall,"[1]; 1 mg/Kg i.p., 12 days",292 s
same,Median Latency to Fall,"[1]; 1 mg/Kg i.p., +3 hours",incapable
same,Median Latency to Fall,"[1]; 1 mg/Kg i.p., −1 hour",226 s
same,lethality,[1]; 10-fold higher dose of MK-801,killed all the mice
same,"motor coordination (rotarod), overall",[1],dramatic impairment of motor coordination
same,time after which side effects essentially disappear,[1]; lower dose of MK-801 (1 mg/Kg i.p.),24 h
"CC(C)C[C@H](NC(=O)[C@H](CC(N)=O)NC(=O)[C@H](CC(C)C)NC(=O)[C@@H](NC(=O)[C@@H](NC(=O)[C@@H]1CCCN1C(=O)[C@H](CCCNC(=N)N)NC(=O)[C@H](CCCCN)NC(=O)[C@@H]1CCCN1C(=O)[C@@H](N)CCCNC(=N)N)[C@@H](C)O)[C@@H](C)O)C(=O)N[C@@H](Cc1ccccc1)C(=O)N1CCC[C@H]1C(=O)N[C@@H](CCC(N)=O)C(=O)N[C@H](C(=O)N1CCC[C@H]1C(=O)N[C@@H](CCCNC(=N)N)C(=O)N[C@@H](CO)C(=O)N[C@@H](CCC(N)=O)C(=O)N[C@@H](CC(=O)O)C(=O)N[C@H](C(=O)O)[C@@H](C)O)C(C)C [L-JBD20, RPKRPTTLNL FPQVPRSQDT] (H-RPKRPTTLNLFPQVPRSQDT-OH)",IC50,"[3]; JNK targets ATF2, IRS-1, MADD, bcl-xl, each case, data not shown",~1000 nM
same,inhibition of JNK action without the TAT sequence,[3]; dose response,can inhibit JNK action
same,interference with activity of pKC,[4],did not interfere with the activity
same,interference with activity of p38,[5],did not interfere with the activity
same,interference with activity of caK,[6],did not interfere with the activity
same,interference with activity of ERK2,[7],did not interfere with the activity
same,interference with activity of p34,[8],did not interfere with the activity
PGTGCGDTYRPKRPTTLNLFPQVPRSQDT (PGTGCGDTYRPKRPTTLNLFPQVPRSQDT) [IB1-long],efficiency in binding JNK relative to c-Jun or ATF2,[9],approximately 100 fold
"N=C(N)NCCC[C@H](NC(=O)[C@H](CCCNC(=N)N)NC(=O)[C@H](CCCNC(=N)N)NC(=O)[C@H](CCC(N)=O)NC(=O)[C@H](CCCNC(=N)N)NC(=O)[C@H](CCCNC(=N)N)NC(=O)[C@H](CCCCN)NC(=O)[C@H](CCCCN)NC(=O)[C@H](CCCNC(=N)N)NC(=O)CN)C(=O)O [L-TAT, reference compound]",concentration at which the TAT sequence induces nonspecific precipitation of the proteins in the extracts,[3],greater than 50 μM
IPSPSVEEPHKHRPTTLRLTTLGAQDS (IPSPSVEEPHKHRPTTLRLTTLGAQDS) [IB2-long],efficiency in binding JNK relative to c-Jun or ATF2,[9],approximately 100 fold
fluorescein labeled bovine serum albumin: fluorescein labeled BSA (12 moles fluorescein/mole BSA) used as a control,entry into cells,[10],did not enter the cells
